The subject of series [1] is CXCR4-tropic HIV-1. The series is described as follows: microbe, parasite or virus in culture. The note with it: Human immunodeficiency virus 1, TZM-bl, 72 h, read-out: IC50 HIV-1.
Series [2] deals with SupT1 cells. The series is described as follows: cells. The settings on record: Homo sapiens, SUP-T1, 4 h, read-out: IC50 Migration.
A further series can be described thus: in vitro. The series is classed as in vitro ADME, human. The note with it: for half-life at 20 µM: 20 µM in whole EDTA blood of an individual donor, 37 °C, read-out: half-life t1/2 in blood. The method, then:
(§1) Compounds were 150-fold diluted in human plasma or whole human blood to reach final concentrations of 20 µM. The t = 0 sample was immediately taken and stored at − 80 °C. Plasma/compound or blood/compound mixture was then transferred to 37 °C and shook at 350 rpm. At given time points samples were taken and stored at − 80 °C. For measuring the functional activity of the plasma/peptide samples, the mixtures were thawed and serially diluted in ice cold PBS (starting with 100% sample). 12G5-APC antibody competition was then performed as described before. Note, that during the competition process the samples are 1:1 diluted with the antibody and the highest plasma concentration on cells was 50%. For blood/peptide functional stability, samples were thawed and centrifuged at 14,000 rpm for 3 min at 4 °C to remove cells and debris. The supernatant was then serially diluted in PBS (starting with 100% sample) and 12G5-antibody competition assay was performed. After the 2 h incubation, the cells were washed by centrifugation (1.300 rpm, 4 °C) and 50 µL of 1-step-Fix/Lyse solution (Thermo Fisher #00-5333-54) was added for 15 min at room temperature. Afterwards cells were washed again and analyzed for bound antibody.
Statistical analysis was performed in GraphPad Prism (version 8.3.0). IC50 and IC90 curves and the areas under the curves (AUC) were determined by nonlinear regression. For half-life calculations, the IC50 values for each time point as well as the AUCs were analyzed and normalized relative to t = 0. Activities were then determined ((IC50 (t = 0) / IC50 (t)) × 100) for each time point and half-lives determined by a One-Phase-Decay model.

The conditions of series [3]: administered AMD3100; cited from earlier work.
The nature of series [4]: Functional stability in human plasma read out by 12G5 competition. Type of series: in vitro ADME. The note with it: for 12G5-competing activity after incubation in plasma / half-life at 20 µM / ability to block 12G5 binding after incubation in plasma / half-life t1/2 in plasma: 37 °C; for 12G5-competing activity after incubation in plasma: 24 h (AMD3100 also 48 h); for half-life at 20 µM: human, plasma, read-out: half-life t1/2 in plasma; for ability to block 12G5 binding after incubation in plasma: plasma of the individual donor, up to 24 h. The method, then: as §1, with “The” for “Compounds were 150-fold diluted in human plasma or whole human blood to reach final concentrations of 20 µM. The”, “After the 2 h incubation, the cells were washed by centrifugation (1.300 rpm, 4 °C) and 50 µL of 1-step-Fix/Lyse solution (Thermo Fisher #00-5333-54) was added for 15 min at room temperature.” left out
(§2) Statistical analysis was performed in GraphPad Prism (version 8.3.0). IC50 and IC90 curves and the areas under the curves (AUC) were determined by nonlinear regression.

Series [5] has as its system SupT1 cells. The note with it: read-out: IC50 Migration.
In series [6] the test system is CXCR4-tropic HIV-1. The settings on record: TZM-bl cells; for IC50: read-out: IC50 HIV-1, infection rate after 3 days, mean ± SEM of 3 assays.
A further series addresses CXCR4 (Homo sapiens, UniProt P61073). Briefly: 12G5 antibody competition assay on SupT1 cells. The series is classed as binding. The settings on record: for IC50: APC-labelled 12G5, 2 h at 4 °C, mean ± SEM of 3 assays. The method, then:
Compounds were serially diluted in ice cold PBS and 12G5-APC antibody was diluted in cold PBS containing 1% FCS. […] Plates were incubated at 4 °C in the dark for 2 h. Afterwards cells were washed twice by centrifugation with PBS containing 1% FCS and fixed with 2% paraformaldehyde (PFA). During all pipetting steps, plates were kept cool by using a cooling pad. Antibody binding was analyzed by flow cytometry (FACS CytoFLEX; Beckman Coulter) by determination of the mean fluorescence intensity (MFI) of at least 5.000 cells (50.000 cells per well) or 1.000 cells (5.000 cells per well).
Ki calculation3 Ki=IC50/1+L/Kd
For Ki = inhibitory constant; IC50 = half maximal inhibition for 12G5 binding; [L] = 12G5 concentration; Kd = dissociation constant of 12G5.
as §2

Series [7] addresses C-X-C chemokine receptor type 4 (CXCR4) (human (endogenous in SupT1)) (UniProt P61073).
The target in series [8] is T1, C-X-C chemokine receptor type 4 (CXCR4) (human (endogenous in SupT1), UniProt P61073 1-352).
T1 construct: CXCR4, G protein-coupled receptor, 352 amino acid cell surface protein; endogenous on SupT1 cells; About 29,000 CXCR4 molecules per SupT1 cell by quantitative flow cytometry; also called CXC chemokine receptor 4; CD184; source: endogenous, on SupT1 cells
Briefly: flow cytometry on cells; competition with APC-labelled anti-CXCR4 antibody 12G5 (0.245 nM final) on SupT1 cells (5000 cells per well for Ki, or 50,000); compounds in PBS, antibody in PBS with 1% FCS; 2 h at 4 °C in the dark; Ki calculated from IC50 by the Cheng-Prusoff transformation with the Kd of 12G5 (151.5 pM). The note with it: one partner purified.

Series [9] concerns the target T1, C-X-C chemokine receptor type 4 (CXCR4). The series is described as follows: cell-based or functional assay.
Series [10] deals with T2, C-X-C chemokine receptor type 4 (CXCR4) (human (endogenous in SupT1)), P61073.
T2 chain: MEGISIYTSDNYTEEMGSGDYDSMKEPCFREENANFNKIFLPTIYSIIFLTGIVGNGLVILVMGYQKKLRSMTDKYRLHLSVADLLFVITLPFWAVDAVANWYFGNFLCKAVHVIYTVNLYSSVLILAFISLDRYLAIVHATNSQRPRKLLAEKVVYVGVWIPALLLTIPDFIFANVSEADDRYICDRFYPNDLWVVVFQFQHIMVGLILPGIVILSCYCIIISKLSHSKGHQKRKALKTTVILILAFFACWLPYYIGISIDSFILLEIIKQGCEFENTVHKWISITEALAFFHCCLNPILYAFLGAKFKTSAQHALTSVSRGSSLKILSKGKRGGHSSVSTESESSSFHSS
The series is described as follows: flow cytometry on cells; competition with APC-labelled anti-CXCR4 antibody 12G5 (0.245 nM final) on SupT1 cells (5000 cells per well for Ki, or 50,000); compounds in PBS, antibody in PBS with 1% FCS; 2 h at 4 °C in the dark; Ki calculated from IC50 by the Cheng-Prusoff transformation with the Kd of 12G5 (151.5 pM).

In series [11] the target is T2, C-X-C chemokine receptor type 4 (CXCR4) ….
Where [12] appears, read: 20 µM in plasma of an individual donor.
Setting [13] is: 20 µM in pooled human plasma, Fig. 4a.

Counter-ions that a name gives are not always drawn. Like-named read-outs stand apart in the source and are kept apart here. Bridge positions count the residues as written; N and C are the ends. Square brackets hold non-standard residues; d marks the D form. Ends that are not written are not given here. Peptide text beside a SMILES is read from it. I, II: the chains in the order shown. 2Nal = N[C@@H](Cc1ccc2ccccc2c1)C(=O)O; Lys(iPr) = CC(C)NCCCC[C@H](N)C(=O)O

On to `NCCCCN(Cc1nc2ccccc2[nH]1)[C@H]1CCCc2cccnc21` [AMD070], for which the IC50 with CXCR4-tropic HIV-1 [1] is 23 ± 4 nM; in the series on SupT1 cells [2], 152 ± 3 nM.

Consider `c1cc(CN2CCCNCCNCCCNCC2)ccc1CN1CCCNCCNCCCNCC1` [AMD3100, AMD3100 octahydrochloride hydrate], for which the “ability to block 12G5 binding after incubation in whole blood” value in “in vitro” is “remained fully active”. Also, the half-life at 20 µM in “in vitro” (human) is greater than 24 h; in [4] (setting [12]), greater than 24 h; in series [4] (setting [13]), greater than 48 h; in [4] (20 µM in pooled human plasma, Fig. S5a, no unit at the value, time axis in min, estimated by eye), greater than 24 h. In addition, the “fraction bound to plasma proteins” value in [3] is on record as 58%. For the same molecule, the figures for the IC50 in the series on CXCR4-tropic HIV-1 [1] and with SupT1 cells [2] were 36 ± 6 nM and 60 ± 13 nM, respectively. Besides, the “12G5-competing activity after incubation in plasma” value in series [4] (20 µM in pooled human plasma) is on record as “remained fully active”. The “ability to block 12G5 binding after incubation in plasma” value in series [4] is “remained fully active”.

Turning to `CC[C@H](C)[C@H](N)C(=O)N[C@H](C(=O)N[C@@H](CCCNC(=N)N)C(=O)N[C@@H](Cc1c[nH]c2ccccc12)C(=O)N[C@@H](CO)C(=O)N[C@@H](CCCCN)C(=O)N[C@@H](CCCCN)C(=O)N[C@H](C(=O)N1CCC[C@H]1C(=O)N[C@@H](CSSC[C@H](NC(=O)[C@@H]1CCCN1C(=O)[C@@H](NC(=O)[C@H](CCCCN)NC(=O)[C@H](CCCCN)NC(=O)[C@H](CO)NC(=O)[C@H](Cc1c[nH]c2ccccc12)NC(=O)[C@H](CCCNC(=N)N)NC(=O)[C@@H](NC(=O)[C@@H](N)[C@@H](C)CC)C(C)C)C(C)C)C(=O)N[C@H](C(=O)N[C@@H](CO)C(=O)O)C(C)C)C(=O)N[C@H](C(=O)N[C@@H](CO)C(=O)O)C(C)C)C(C)C)C(C)C` [EPI-X4 WSC02x2] (I: H-IVRWSKKVPCVS-OH / II: H-IVRWSKKVPCVS-OH; disulfide I:10-II:10; N-terminus and C-terminus assumed), the half-life at 20 µM is 1.33 h in “in vitro” (human); roughly 3 h in series [4] (setting [12]); 3.22 h in [4] (20 µM in pooled human plasma (6 donors), from IC50 relative to t = 0, one-phase decay); greater than 3 h in series [4] (human plasma, value in discussion). For the same molecule, the “stability in blood compared to plasma” value in “in vitro” (human, plasma) is recorded as “less stable in blood compared to plasma”. For the same molecule, the “fold more stable than WSC02 in plasma” value in series [4] (pooled human plasma, ratio of t1/2) is 19 fold.

Regarding `CC1(C)CN2C(CSC(=NC3CCCCC3)NC3CCCCC3)=CSC2=N1` [IT1t], the “ability to block 12G5 binding after incubation in whole blood” value in “in vitro” is “moderately impaired”. Moreover, the IC50 turned out to be 230 ± 20 nM in the series on SupT1 cells [5] and 5 ± 0.9 nM in the series with CXCR4-tropic HIV-1 [6]. Further, the entries for the “half-life t1/2 in plasma” value in series [4] (setting [12]) and in [4] (setting [13]) were “ca. 480 min” and less than 24 h, respectively. For the same molecule, the “12G5-competing activity after incubation in plasma” value in series [4] (20 µM in pooled human plasma) is reported as “remained fully active”. For the same molecule, the “ability to block 12G5 binding after incubation in plasma” value in [4] was “moderately impaired”.

A word on the Ki: it is a dissociation constant, usually derived from enzyme kinetics or from competition with a known ligand. Turning to `CC(C)NCCCC[C@H](NC(=O)[C@H]1CCC(=O)N[C@@H](Cc2ccccc2)C(=O)N[C@@H](Cc2ccc(O)cc2)C(=O)N[C@@H](CCCCNC(C)C)C(=O)N[C@H](CCCNC(=N)N)C(=O)N[C@@H](Cc2ccc3ccccc3c2)C(=O)NCC(=O)N1)C(N)=O` [LY2510924] (FY[Lys(iPr)][dR][2Nal]G[dE][Lys(iPr)]-NH2; lactam N-7), the IC50 was 151 ± 78 nM on CXCR4 (SupT1 cells); 66 ± 8 nM in the series on SupT1 cells [5] (100 ng/mL CXCL12, 4 h, mean ± SEM of 3 assays); 8 ± 0.8 nM in the series on CXCR4-tropic HIV-1 [6]. Also, the Ki at CXCR4 (calculated from IC50 12G5 by Cheng-Prusoff, Kd of 12G5 151.5 pM) is 58 ± 30 nM.

Turning to `c1cnc(NCc2ccc(CNc3ncccn3)cc2)nc1` [MSX-122], on CXCR4 (SupT1 cells), the “effect on 12G5 binding” value is reported as “did not interfere with 12G5 binding” and the IC50 was greater than 100000 nM. Further, in the series with CXCR4-tropic HIV-1 [1], the IC50 was greater than 10000 nM. Moreover, in the series on CXCR4-tropic HIV-1 [6], the “effect on CXCR4-tropic HIV-1 infection” value was “not affecting”.

Consider “EPI-X4 (Endogenous Peptide Inhibitor of CXCR4)”, for which the IC50 of inhibition of infection of TZM-bl reporter cells by CXCR4-tropic HIV-1 (NL4-3), β-galactosidase assay in series [7] was determined as 31400 nM.

B1: EPI-X4 WSC02x2 (peptide)
chain: IVRWSKKVPCVS
modifications: also: homodimer via intermolecular disulfide, disulfide at 10, other end not in the chain
Regarding B1, in series [8], the IC50 was 182 nM and the Ki is 69 ± 12 nM. For the same molecule, in series [9], the “IC50 of inhibition of SupT1 cell migration towards CXCL12 (100 ng/mL, transwell); the pair antagonized is CXCL12 with CXCR4” value is 2670 nM and the “IC50 of inhibition of infection of TZM-bl reporter cells by CXCR4-tropic HIV-1 (NL4-3), β-galactosidase assay” value worked out at 254 nM.

B2: EPI-X4 WSC02 (peptide)
chain: IVRWSKKVPCVS
modifications: not checked
Turning to B2, in [10], the IC50 was 290 nM and the inhibition constant Ki is 111 nM. In series [11], this molecule had an IC50 of inhibition of SupT1 cell migration towards CXCL12 (100 ng/mL, transwell); the pair antagonized is CXCL12 with CXCR4 of 15800 nM and an IC50 of inhibition of infection of TZM-bl reporter cells by CXCR4-tropic HIV-1 (NL4-3), β-galactosidase assay of 257 nM.
